The record followed here is patent US9758537B2 (Achillion Pharmaceuticals, Inc., priority 2014, dated 2017).

pIC50: −log10 of the molar value.

For this assay, the target named is Human factor D (Homo sapiens (Human), UniProt P00746). The assay can be described thus: Human Factor D Assay. The format is biochemical. The settings on record: human factor D 80 nM, substrate Z-L-Lys-SBzl, DTNB, OD405. The method, then: Human factor D (purified from human serum, Complement Technology, Inc.) at 80 nM final concentration is incubated with test compound at various concentrations for 5 minutes at room temperature in 50 mM Tris, 1M NaCl, pH 7.5. A synthetic substrate Z-L-Lys-SBzl and DTNB (Ellman's reagent) are added to final concentrations of 10 μM each. The increase in color is recorded at OD405 nm in a microplate in kinetic mode over 30 minutes with 30 second time points in a […]. IC50 values are calculated by non-linear regression from the percentage of inhibition of complement factor D activity as a function of test compound concentration.
Human factor D, sequence (P00746 26-253): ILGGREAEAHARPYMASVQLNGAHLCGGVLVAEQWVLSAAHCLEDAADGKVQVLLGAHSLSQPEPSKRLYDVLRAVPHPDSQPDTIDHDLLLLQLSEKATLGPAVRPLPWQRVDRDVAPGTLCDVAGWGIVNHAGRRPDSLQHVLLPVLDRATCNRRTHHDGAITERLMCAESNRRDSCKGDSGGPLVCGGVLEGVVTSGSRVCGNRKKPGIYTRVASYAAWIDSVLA

By pIC50 is commonly meant −log10 of the IC50, conventionally taken in molar units. In the case of `CC(=O)c1cn(CC(=O)N2[C@H](C(=O)NCc3cccc(Cl)c3F)C[C@@H]3CCCC[C@@H]32)c2ccccc12` [Compound 1, (2S,3aS,7aS)-1-(2-(3-acetyl-1H-indol-1-yl)acetyl)-N-(3-chloro-2-fluorobenzyl)octahydro-1H-indole-2-carboxamide], the pIC50 was above 6.00. For `CC(=O)n1cc(NC(=O)[C@@H]2C[C@@H](F)CN2C(=O)NCc2cccc(Cl)c2F)c2ccccc21` [Compound 3, (2S,4R)-N2-(1-acetyl-1H-indol-3-yl)-N1-(3-chloro-2-fluorobenzyl)-4-fluoropyrrolidine-1,2-dicarboxamide] the value was below 5.00. The result for `CC(=O)n1cc(NC(=O)[C@@H]2C[C@H](F)CN2C(=O)NCc2cccc(Cl)c2F)c2ccccc21` [Compound 4, (2S,4S)-N2-(1-acetyl-1H-indol-3-yl)-N1-(3-chloro-2-fluorobenzyl)-4-fluoropyrrolidine-1,2-dicarboxamide] reads below 5.00.

In turn, `CC(=O)n1cc(NC(=O)[C@@H]2C[C@H](F)CN2C(=O)NCc2ccccc2)c2ccccc21` [Compound 5, (2S,4S)-N2-(1-acetyl-1H-indol-3-yl)-N1-benzyl-4-fluoropyrrolidine-1,2-dicarboxamide] had a pIC50 below 5.00.

Regarding `NC(=O)n1cc(NC(=O)N2C[C@H](F)C[C@H]2C(=O)NS(=O)(=O)c2cccc(Cl)c2F)c2ccccc21` [Compound 6, (2S,4R)-N1-(1-carbamoyl-1H-indol-3-yl)-N2-(3-chloro-2-fluorophenylsulfonyl)-4-fluoropyrrolidine-1,2-dicarboxamide], the pIC50 is below 5.00.

Compound `CC(=O)n1cc(NC(=O)N2C[C@H](F)C[C@H]2C(=O)NS(=O)(=O)c2cccc(Cl)c2F)c2ccccc21` [Compound 7, (2S,4R)-N1-(1-acetyl-1H-indol-3-yl)-N2-(3-chloro-2-fluorophenylsulfonyl) - 4-fluoropyrrolidine-1,2-dicarboxamide] showed a pIC50 below 5.00. The result for `CC(=O)n1cc(NC(=O)[C@H]2CC(F)(F)CN2C(=O)NCc2cccc(Cl)c2F)c2ccccc21` [Compound 8, (R)-N2-(1-acetyl-1H-indol-3-yl)-N1-(3-chloro-2-fluorobenzyl)-4,4-difluoropyrrolidine-1,2-dicarboxamide] reads below 5.00; that for `CC(=O)n1cc(NC(=O)[C@H]2CCCN2C(=O)NCc2cccc(Cl)c2F)c2ccccc21` [Compound 9, (R)-N2-(1-acetyl-1H-indol-3-yl)-N1-(3-chloro-2-fluorobenzyl) pyrrolidine-1,2-dicarboxamide], below 5.00; that for `CC(=O)c1cn(CC(=O)N2C[C@H](F)C[C@H]2c2ncc(-c3cccc(Cl)c3)[nH]2)c2ccccc12` [Compound 11, 2-(3-acetyl-1H-indol-1-yl)-1-((2S,4R)-2-(5-(3-chlorophenyl)-1H-imidazol-2-yl)-4-fluoropyrrolidin-1-yl)ethanone], below 5.00. For `CC(=O)c1cn(CC(=O)N2C[C@H](F)C[C@H]2c2nc3cc(Cl)ccc3[nH]2)c2ccccc12` [Compound 15, 2-(3-acetyl-1H-indol-1-yl)-1-((2S,4R)-2-(5-chloro-1H-benzo[d]imidazol-2-yl)-4-fluoropyrrolidin-1-yl)ethanone] the value was below 5.00; for `CC(=O)n1cc(NC(=O)[C@H]2CCCN2C(=O)Nc2cccc(OC(F)(F)F)c2F)c2ccccc21` [Compound 16, (R)-N2-(1-acetyl-1H-indol-3-yl)-N1-(2-fluoro-3-(trifluoromethoxy)phenyl)pyrrolidine-1,2-dicarboxamide], below 5.00. `CC(=O)n1cc(NC(=O)[C@H]2CC(F)(F)CN2C(=O)Cc2cccc(Cl)c2F)c2ccccc21` [Compound 17, (R)-N-(1-acetyl-1H-indol-3-yl)-1-(2-(3-chloro-2-fluorophenyl)acetyl)-4,4-difluoropyrrolidine-2-carboxamide]: the negative logarithm of the IC50 (pIC50) is below 5.00.

In turn, `CC(=O)c1cn(CC(=O)N2CC[C@@H](OCC3CC3)[C@H]2C(=O)NCc2cccc(Cl)c2F)c2ccccc12` [Compound 18, (2S,3R)-1-(2-(3-acetyl-1H-indol-1-yl)acetyl)-N-(3-chloro-2-fluorobenzyl)-3-(cyclopropylmethoxy) pyrrolidine-2-carboxamide] had a negative-log IC50 (pIC50) above 6.00. With `COc1ccc2c(O[C@@H]3C[C@@H](C(=O)NCc4cccc(Cl)c4F)N(C(=O)Nc4cn(C(C)=O)c5ccccc45)C3)cc(-c3ccccc3)nc2c1` [Compound 19, (2S,4R)-N1-(1-acetyl-1H-indol-3-yl)-N2-(3-chloro-2-fluorobenzyl)-4-(7-methoxy-2-phenylquinolin-4-yloxy)pyrrolidine-1,2-dicarboxamide], the negative-log IC50 (pIC50) was below 5.00. `CC(=O)n1cc(NC(=O)Nc2cn(C(C)=O)c3ccccc23)c2ccccc21` [Compound 20, 1,3-bis(1-acetyl-1H-indol-3-yl)urea] had a negative-log IC50 (pIC50) below 5.00.

Consider `CC(=O)c1cn(CC(=O)N2C[C@H](F)[C@@H](OCC3CC3)[C@H]2C(=O)NCc2cccc(Cl)c2F)c2cc(O)ccc12` [Compound 21, (2S,3S,4S)-1-(2-(3-acetyl-6-hydroxy-1H-indol-1-yl)acetyl)-N-(3-chloro-2-fluorobenzyl)-3-(cyclopropylmethoxy)-4-fluoropyrrolidine-2-carboxamide], for which the negative-log IC50 (pIC50) is above 6.00. `O=C(c1cn(CC(=O)N2[C@@H]3C[C@@H]3C[C@H]2C(=O)NCc2cccc(Cl)c2F)c2ccccc12)C1CC1` [Compound 22, (1R,3S,5R)-N-(3-chloro-2-fluorobenzyl)-2-(2-(3-(cyclopropanecarbonyl)-1H-indol-1-yl)acetyl)-2-azabicyclo[3.1.0]hexane-3-carboxamide]: the pIC50 was above 6.00. The compound `O=C(c1cn(CC(=O)N2C[C@H](F)C[C@H]2C(=O)NCc2cccc(Cl)c2F)c2ccccc12)C1CC1` [Compound 24, (2S,4R)-N-(3-chloro-2-fluorobenzyl)-1-(2-(3-(cyclopropanecarbonyl)-1H-indol-1-yl)acetyl)-4-fluoropyrrolidine-2-carboxamide] showed a negative-log IC50 (pIC50) above 6.00. Consider `CC(=O)c1cn(CC(=O)N2CC(F)C(OCC3CC3)[C@H]2C(=O)NCc2cccc(Cl)c2F)c2cc(O)ccc12` (stereo partly drawn) [Compound 25, (2S)-1-(2-(3-acetyl-6-hydroxy-1H-indol-1-yl)acetyl)-N-(3-chloro-2-fluorobenzyl)-3-(cyclopropylmethoxy)-4-fluoropyrrolidine-2-carboxamide], for which the pIC50 is above 6.00. As to `NC(=O)N1CC(NC(=O)[C@@H]2CCC[C@H]2C(=O)NCc2cccc(Cl)c2F)c2ccccc21` (stereo partly drawn) [Compound 26, (1R,2R)-N1-(1-carbamoylindolin-3-yl)-N2-(3-chloro-2-fluorobenzyl)cyclopentane-1,2-dicarboxamide], the negative logarithm of the IC50 (pIC50) was below 5.00. The result for `CC(=O)c1cn(CC(=O)N2C[C@H](F)C[C@H]2Cn2cc(-c3ccc(F)cc3)nn2)c2ccccc12` [Compound 27, 2-(3-acetyl-1H-indol-1-yl)-1-((2S,4R)-4-fluoro-2-((4-(4-fluorophenyl)-1H-1,2,3-triazol-1-yl)methyl)pyrrolidin-1-yl)ethanone] reads below 5.00; that for `NC(=O)n1cc(NC(=O)N2C[C@H](F)C[C@H]2Cn2cc(-c3ccc(F)cc3)nn2)c2ccccc21` [Compound 28, 3-((2S,4R)-4-fluoro-2-((4-(4-fluorophenyl)-1H-1,2,3-triazol-1-yl)methyl)pyrrolidine-1-carboxamido)-1H-indole-1-carboxamide], below 5.00; that for `COc1ccc2c(O[C@@H]3C[C@@H](C(=O)NCc4cccc(Cl)c4F)N(C(=O)Cn4cc(C(C)=O)c5ccccc54)C3)cc(-c3ccccc3)nc2c1` [Compound 29, (2S,4R)-1-(2-(3-acetyl-1H-indol-1-yl)acetyl)-N-(3-chloro-2-fluorobenzyl)-4-(7-methoxy-2-phenylquinolin-4-yloxy)pyrrolidine-2-carboxamide], below 5.00. The result for `NC(=O)N1C[C@H](F)C[C@H]1Cn1cc(-c2ccc(F)c(Cl)c2)nn1` [Compound 30, (2S,4R)-2-((4-(3-chloro-4-fluorophenyl)-1H-1,2,3-triazol-1-yl)methyl)-4-fluoropyrrolidine-1-carboxamide] reads below 5.00. As to `NC(=O)n1cc(NC(=O)C2=C(C(=O)NCc3cccc(Cl)c3F)CCC2)c2ccccc21` [Compound 31, N1-(1-carbamoyl-1H-indol-3-yl)-N2-(3-chloro-2-fluorobenzyl)cyclopent-1-ene-1,2-dicarboxamide], the pIC50 was below 5.00.

Regarding `CC(=O)c1cn(CC(=O)N2C[C@H](F)C[C@H]2C(=O)N2Cc3ccccc3C2)c2ccccc12` [Compound 33, 2-(3-acetyl-1H-indol-1-yl)-1-((2S,4R)-4-fluoro-2-(isoindoline-2-carbonyl)pyrrolidin-1-yl)ethanone], the pIC50 was below 5.00.

In turn, `CC(=O)c1cn(CC(=O)N2C[C@H](F)C[C@H]2C(=O)N(C)Cc2cccc(Cl)c2F)c2ccccc12` [Compound 34, (2S,4R)-1-(2-(3-acetyl-1H-indol-1-yl)acetyl)-N-(3-chloro-2-fluorobenzyl)-4-fluoro-N-methylpyrrolidine-2-carboxamide] gave a negative logarithm of the IC50 (pIC50) below 5.00.

`CC(=O)c1cn(CC(=O)N2[C@H](C(=O)NCc3cccc(Cl)c3F)C[C@@H]3CCCC[C@@H]32)c2cc(O)ccc12` [Compound 35, (2S,3aS,7aS)-1-(2-(3-acetyl-6-hydroxy-1H-indol-1-yl)acetyl)-N-(3-chloro-2-fluorobenzyl)octahydro-1H-indole-2-carboxamide]: the pIC50 is above 6.00. In turn, `N#Cc1cn(CC(=O)N2C[C@H](F)C[C@H]2C(=O)NCc2cccc(Cl)c2F)c2ccccc12` [Compound 36, (2S,4R)-N-(3-chloro-2-fluorobenzyl)-1-(2-(3-cyano-1H-indol-1-yl)acetyl)-4-fluoropyrrolidine-2-carboxamide] had a negative-log IC50 (pIC50) above 6.00.
